# Test results reported in patent publication US20180171411A1, “GFRalpha1 AS A BIOMARKER FOR CISPLATIN-INDUCED CHEMORESISTANCE AND METASTASIS” (THE BOARD OF REGENTS OF THE UNIVERSITY OF TEXAS SYSTEM, priority 2015, published 2018).
# Tested on: cytoplasmic HMGB1 in MG-63/GFRα1 tumors
# Assay: Immunofluorescence of HMGB1 in xenograft tumors
# Assay type: in vivo, mouse
# Conditions: tumors of MG-63/GFRα1 cell grafted mice
# Experimental: FIG. 5. GFRα1-mediated autophagy promotes chemoresistance and tumor growth in vivo. (a) BALB/c nude mice (n =40) were injected with MG-63 cells that were transfected with either control or GFRα1 expressing vector. Tumor volume was measured every 3 or 4 days. Data are shown as mean±SEM. ** p<0.05. (b) BALB/c nude mice (n=20) were injected with MG-63 cells that were transfected with either control or GFRα1 shRNA. Tumor volume was measured every 3 or 4 days. Data are shown as mean±SEM. ** p<0.05. (c) Tumors that were generated from mice injected with MG-63 cells containing GFRα1 expressing vector were directly injected with PBS, CQ, cisplatin, or cisplatin+CQ. Tumor volume was measured every 4 days. […] Right, quantitative analysis of percentage of cytoplasmic HMGB1-positive cells in HMGB1-positive tumors. […] Right, quantitative analysis of percentage of TUNEL-positive cells in HMGB1-positive tumors. […]
# Immunohistochemistry. […] For immunofluorescence, immunohistochemistry of patient tissues and mouse tumors are incubated with the Alexa Fluor 488- and 647-conjugated secondary antibodies (Invitrogen), and nuclei were counterstained with DAPI (Sigma-Aldrich) Immunofluorescence was detected by confocal microscopy. […] Thus, marked plus (+) was considered to be positive immunoreactivity, while that minus (−) was considered to be negative immunoreactivity (not detected). […]
smiles,measurement,value
"N.N.[Cl][Pt][Cl] [cisplatin, Cis-Diamineplatinum(II) dichloride]",HMGB1 expression localized in the cytoplasm,significant increase
